The subject of one data set is A549. As to the kind of experiment: Antiproliferative activity against human A549 cells assessed as inhibition of cell growth at 12.5 ug/ml measured after 48 hrs by real-time cell analysis relative to control. Type of data set: functional. As to conditions: read-out: GI.
The subject of the next data set is HepG2. As to the kind of experiment: Antiproliferative activity against human HepG2 cells assessed as inhibition of cell growth at 12.5 ug/ml measured after 48 hrs by real-time cell analysis relative to control. It is filed as functional. The note with it: read-out: GI.
Data set [1] has as its system Mus musculus. The data set can be described thus: Anti-insomnia activity pentobarbital-induced mouse model of insomnia assessed as number of forelimb lifts at 16 mg/kg, ig administered daily for 15 days followed by pentobarbital addition at 1 hr post last dose (reference value: 9.2 +/- 4.31). Type of data set: functional. As to conditions: time 15 day.
In data set [2] the test system is Mus musculus. The data set can be described thus: Anti-insomnia activity pentobarbital-induced mouse model of insomnia assessed as time of sleep latency at 16 mg/kg, ig administered daily for 15 days followed by pentobarbital addition at 1 hr post last dose (reference value: 8.1 +/- 6.06 min). It is filed as functional. As to conditions: time 15 day.
The subject of data set [3] is Mus musculus. As to the kind of experiment: Anti-insomnia activity pentobarbital-induced mouse model of insomnia assessed as sleep rate at 8 mg/kg, ig administered daily for 15 days followed by pentobarbital addition at 1 hr post last dose relative to control. The note with it: time 15 day. Type of data set: functional.
Data set [4] deals with Mus musculus. The data set can be described thus: Anti-insomnia activity pentobarbital-induced mouse model of insomnia assessed as time of sleep duration at 32 mg/kg, ig administered daily for 15 days followed by pentobarbital addition at 1 hr post last dose (reference value: 17.1 +/- 5.15 min). Type of data set: functional. As to conditions: time 15 day.
Data set [5] has as its system Mus musculus. As to the kind of experiment: Anti-insomnia activity pentobarbital-induced mouse model of insomnia assessed as number of forelimb lifts at 8 mg/kg, ig administered daily for 15 days followed by pentobarbital addition at 1 hr post last dose (reference value: 9.2 +/- 4.31). It is filed as functional. As to conditions: time 15 day.
In data set [6] the test system is Mus musculus. The data set can be described thus: Anti-insomnia activity pentobarbital-induced mouse model of insomnia assessed as sleep rate at 16 mg/kg, ig administered daily for 15 days followed by pentobarbital addition at 1 hr post last dose relative to control. The note with it: time 15 day. Type of data set: functional.
The test system of data set [7] is Mus musculus. The data set can be described thus: Anti-insomnia activity pentobarbital-induced mouse model of insomnia assessed as time of sleep duration at 16 mg/kg, ig administered daily for 15 days followed by pentobarbital addition at 1 hr post last dose (reference value: 17.1 +/- 5.15 min). Type of data set: functional. The note with it: time 15 day.
Data set [8] concerns Mus musculus. As to the kind of experiment: Anti-insomnia activity pentobarbital-induced mouse model of insomnia assessed as time of sleep latency at 8 mg/kg, ig administered daily for 15 days followed by pentobarbital addition at 1 hr post last dose (reference value: 8.1 +/- 6.06 min). Type of data set: functional. The note with it: time 15 day.
Data set [9] concerns Mus musculus. As to the kind of experiment: Anti-insomnia activity pentobarbital-induced ig dosed mouse model of insomnia assessed as increase in sleep time administered daily for 15 days followed by pentobarbital addition at 1 hr post last dose. As to conditions: dose 8-32 mg/kg, time 15.0 day. It is filed as functional, organism-based.
In data set [10] the test system is Mus musculus. The data set can be described thus: Anti-insomnia activity pentobarbital-induced mouse model of insomnia assessed as sleep rate at 32 mg/kg, ig administered daily for 15 days followed by pentobarbital addition at 1 hr post last dose relative to control. It is filed as functional. As to conditions: time 15 day.
Data set [11] has as its system Mus musculus. As to the kind of experiment: Anti-insomnia activity pentobarbital-induced mouse model of insomnia assessed as number of forelimb lifts at 32 mg/kg, ig administered daily for 15 days followed by pentobarbital addition at 1 hr post last dose (reference value: 9.2 +/- 4.31). It is filed as functional. The note with it: time 15 day.
The test system of data set [12] is Mus musculus. The data set can be described thus: Anti-insomnia activity pentobarbital-induced ig dosed mouse model of insomnia assessed as reduction in time before sleep administered daily for 15 days followed by pentobarbital addition at 1 hr post last dose. It is filed as functional, organism-based. As to conditions: dose 8-32 mg/kg, time 15.0 day.
Data set [13] deals with Mus musculus. The data set can be described thus: Anti-insomnia activity pentobarbital-induced mouse model of insomnia assessed as time of sleep latency at 32 mg/kg, ig administered daily for 15 days followed by pentobarbital addition at 1 hr post last dose (reference value: 8.1 +/- 6.06 min). Type of data set: functional. As to conditions: time 15 day.
Data set [14] concerns Mus musculus. The data set can be described thus: Anti-insomnia activity pentobarbital-induced mouse model of insomnia assessed as time of sleep duration at 8 mg/kg, ig administered daily for 15 days followed by pentobarbital addition at 1 hr post last dose (reference value: 17.1 +/- 5.15 min). Type of data set: functional. As to conditions: time 15 day.
Data set [15] can be described thus: Antitumor activity against human Lewis lung cancer cells xenografted in BALB/c mouse assessed as tumor growth inhibition at 20 mg/kg, ig administered every day for 10 days relative to control. The note with it: Lewis lung carcinoma, po, 240 h, read-out: TGI.
Data set [16] can be described thus: Antitumor activity against human H22 cells xenografted in KM mouse assessed as tumor growth inhibition at 20 mg/kg, ig administered every day for 10 days relative to control. The note with it: H22, po, 240 h, read-out: TGI. (Xenograft models place foreign cells or tissue in a host animal.)
The nature of data set [17]: Toxicity in human Lewis lung cancer cells xenografted BALB/c mouse assessed as survival rate at 20 mg/kg, ig administered every day for 10 days (reference value: 100%). The note with it: in vivo, po.
Data set [18] is described as follows: Toxicity in human H22 cells xenografted KM mouse assessed as survival rate at 20 mg/kg, ig administered every day for 10 days relative to control. As to conditions: in vivo, po.
The test system of data set [19] is Mus musculus. The data set can be described thus: Anti-insomnia activity pentobarbital-induced mouse model of insomnia assessed as time of sleep duration at 0.029 mg/kg, ig administered daily for 15 days followed by pentobarbital addition at 1 hr post last dose (reference value: 17.1 +/- 5.15 min). Type of data set: functional. The note with it: time 15 day.
Data set [20] has as its system Mus musculus. As to the kind of experiment: Anti-insomnia activity pentobarbital-induced mouse model of insomnia assessed as number of forelimb lifts at 0.029 mg/kg, ig administered daily for 15 days followed by pentobarbital addition at 1 hr post last dose (reference value: 9.2 +/- 4.31). Type of data set: functional. As to conditions: time 15 day.
The test system of data set [21] is Mus musculus. The data set can be described thus: Anti-insomnia activity pentobarbital-induced mouse model of insomnia assessed as time of sleep latency at 0.029 mg/kg, ig administered daily for 15 days followed by pentobarbital addition at 1 hr post last dose (reference value: 8.1 +/- 6.06 min). As to conditions: time 15 day. It is filed as functional.
The subject of data set [22] is Mus musculus. As to the kind of experiment: Anti-insomnia activity pentobarbital-induced mouse model of insomnia assessed as sleep rate at 0.029 mg/kg, ig administered daily for 15 days followed by pentobarbital addition at 1 hr post last dose relative to control. It is filed as functional. As to conditions: time 15 day.

The structures appear in SMILES notation.

Consider `CC(C)[C@@H](C)/C=C/[C@@H](C)[C@H]1CC[C@H]2C3=CC(=O)[C@@]4(O)C[C@@H](O)CC[C@]4(C)[C@H]3CC[C@]12C`, for which the inhibition of growth at 12.5 µg/mL in the data set on A549 and in the data set on HepG2 was 100% throughout.

As to `OCCNc1ncnc2c1ncn2[C@@H]1O[C@H](CO)[C@@H](O)[C@H]1O`, the Activity in the data set on Mus musculus [1] is 3.9; in the data set with Mus musculus [3], 20%; in the data set on Mus musculus [5], 9; in the data set on Mus musculus [6] it was 40%; with Mus musculus [9], “Dose-dependent effect”; in the data set on Mus musculus [10], 60%. For the same molecule, the figures for the Activity in the data set with Mus musculus [11] and with Mus musculus [12] were 3.3 and “Dose-dependent effect”, respectively. The Time with Mus musculus [2] is recorded as 5.2 min; in the data set with Mus musculus [4], 34.5 min; with Mus musculus [7], 26.2 min; in the data set on Mus musculus [8] it was 5.7 min; with Mus musculus [13], 5.1 min; in the data set with Mus musculus [14], 24.2 min.

Take `C/C(=C\[C@@H](C)[C@H]1CC[C@@H]2[C@]1(C)CC[C@H]1[C@]23C=C[C@]2(C[C@@H](O)CC[C@]12C)OO3)[C@H](C)C(C)C`: the inhibition of growth at 12.5 µg/mL in the data set on A549 and in the data set with HepG2 was 100% in each case.

As to `O=P1(N(CCCl)CCCl)NCCCO1` (stereo unspecified) [CYCLOPHOSPHAMIDE ANHYDROUS], the inhibition in vivo at 20 mg/kg in data set [15] stood at 46.3%; in [16], 52.9%. Besides, the survival at 240 h in data set [17] and in data set [18] was 100% each time.

Regarding `Clc1ccc2c(c1)C(c1ccccc1)=NCc1nncn1-2` [ESTAZOLAM], the results for the Time in the data set with Mus musculus [19] and in the data set on Mus musculus [21] were 26 min and 5.9 min, respectively. Further, the Activity in the data set with Mus musculus [20] is recorded as 4.1; in the data set with Mus musculus [22], 60%.

For the origin of these results see ChEMBL document CHEMBL4706663, “Large-scale isolation and antitumor mechanism evaluation of compounds from the traditional Chinese medicine Cordyceps Militaris” (Eur J Med Chem, 2021).
